Measured values as given in ChEMBL document CHEMBL4507316 (2021).

What was measured:
[1] = system: Tyrosine-protein kinase ABL1 (Homo sapiens), P00519 [G250E]; assay: ABL1 G250E ProQinase selectivity panel; details: Compound concentration 1.0 uM
[2] = system: Tyrosine-protein kinase ABL1 (Homo sapiens), P00519 [Q252H]; assay: ABL1 Q252H ProQinase selectivity panel; details: Compound concentration 1.0 uM
[3] = target: Activin receptor type-1 (Homo sapiens) (UniProt Q04771); assay: ACV-R1 ProQinase selectivity panel; details: Compound concentration 1.0 uM
[4] = target: Calcium/calmodulin-dependent protein kinase type II subunit delta (Homo sapiens) (UniProt Q13557); assay: CAMK2D ProQinase selectivity panel; details: Compound concentration 1.0 uM
[5] = target: Calcium/calmodulin-dependent protein kinase kinase 1 (Homo sapiens) (UniProt Q8N5S9); assay: CAMKK1 ProQinase selectivity panel; details: Compound concentration 1.0 uM
[6] = target: Serine/threonine-protein kinase MRCK beta (Homo sapiens) (UniProt Q9Y5S2); assay: CDC42BPB ProQinase selectivity panel; details: Compound concentration 1.0 uM
[7] = target: Cyclin-dependent kinase 5/CDK5 activator 1 (Homo sapiens) (UniProt Q00535+Q15078); assay: CDK5/p25NCK ProQinase selectivity panel; format: protein-complex assay; details: Compound concentration 1.0 uM
[8] = target: CDK8/Cyclin C (Homo sapiens) (UniProt P49336+P24863); assay: CDK8/CycC ProQinase selectivity panel; format: protein-complex assay; details: Compound concentration 1.0 uM
[9] = target: Casein kinase II subunit alpha' (Homo sapiens) (UniProt P19784); assay: CK2-alpha2 ProQinase selectivity panel; details: Compound concentration 1.0 uM
[10] = target: Dual specificity protein kinase CLK4 (Homo sapiens) (UniProt Q9HAZ1); assay: CLK4 ProQinase selectivity panel; details: Compound concentration 1.0 uM
[11] = target: Dual specificity tyrosine-phosphorylation-regulated kinase 4 (Homo sapiens) (UniProt Q9NR20); assay: DYRK4 ProQinase selectivity panel; details: Compound concentration 1.0 uM
[12] = system: Epidermal growth factor receptor (Homo sapiens), P00533 [UNDEFINED MUTATION]; assay: EGF-R d747-749/A750P ProQinase selectivity panel; details: Compound concentration 1.0 uM
[13] = system: Epidermal growth factor receptor (Homo sapiens), P00533 [G719C]; assay: EGF-R G719C ProQinase selectivity panel; details: Compound concentration 1.0 uM
[14] = target: Receptor tyrosine-protein kinase erbB-4 (Homo sapiens) (UniProt Q15303); assay: ERBB4 ProQinase selectivity panel; details: Compound concentration 1.0 uM
[15] = system: Receptor-type tyrosine-protein kinase FLT3 (Homo sapiens), P36888 [D835Y]; assay: FLT3 D835Y ProQinase selectivity panel; details: Compound concentration 1.0 uM
[16] = target: G protein-coupled receptor kinase 4 (Homo sapiens) (UniProt P32298); assay: GRK4 ProQinase selectivity panel; details: Compound concentration 1.0 uM
[17] = target: G protein-coupled receptor kinase 6 (Homo sapiens) (UniProt P43250); assay: GRK6 ProQinase selectivity panel; details: Compound concentration 1.0 uM
[18] = target: Homeodomain-interacting protein kinase 2 (Homo sapiens) (UniProt Q9H2X6); assay: HIPK2 ProQinase selectivity panel; details: Compound concentration 1.0 uM
[19] = target: Inhibitor of nuclear factor kappa-B kinase subunit epsilon (Homo sapiens) (UniProt Q14164); assay: IKK-epsilon ProQinase selectivity panel; details: Compound concentration 1.0 uM
[20] = target: Insulin receptor (Homo sapiens) (UniProt P06213); assay: INS-R ProQinase selectivity panel; details: Compound concentration 1.0 uM
[21] = target: Tyrosine-protein kinase JAK1 (Homo sapiens) (UniProt P23458); assay: JAK1 ProQinase selectivity panel; details: Compound concentration 1.0 uM
[22] = system: Mast/stem cell growth factor receptor Kit (Homo sapiens), P10721 [T670I]; assay: KIT T670I ProQinase selectivity panel; details: Compound concentration 1.0 uM
[23] = target: Mitogen-activated protein kinase kinase kinase 10 (Homo sapiens) (UniProt Q02779); assay: MAP3K10 ProQinase selectivity panel; details: Compound concentration 1.0 uM
[24] = target: Mitogen-activated protein kinase kinase kinase 7 (Homo sapiens) (UniProt O43318); assay: MAP3K7/MAP3K7IP1 ProQinase selectivity panel; details: Compound concentration 1.0 uM
[25] = target: MAP kinase-activated protein kinase 2 (Homo sapiens) (UniProt P49137); assay: MAPKAPK2 ProQinase selectivity panel; details: Compound concentration 1.0 uM
[26] = target: Megakaryocyte-associated tyrosine-protein kinase (Homo sapiens) (UniProt P42679); assay: MATK ProQinase selectivity panel; details: Compound concentration 1.0 uM
[27] = target: Misshapen-like kinase 1 (Homo sapiens) (UniProt Q8N4C8); assay: MINK1 ProQinase selectivity panel; details: Compound concentration 1.0 uM
[28] = target: MAP kinase-interacting serine/threonine-protein kinase 2 (Homo sapiens) (UniProt Q9HBH9); assay: MKNK2 ProQinase selectivity panel; details: Compound concentration 1.0 uM
[29] = target: Serine/threonine-protein kinase Nek9 (Homo sapiens) (UniProt Q8TD19); assay: NEK9 ProQinase selectivity panel; details: Compound concentration 1.0 uM
[30] = target: Lymphokine-activated killer T-cell-originated protein kinase (Homo sapiens) (UniProt Q96KB5); assay: PBK ProQinase selectivity panel; details: Compound concentration 1.0 uM
[31] = system: Platelet-derived growth factor receptor alpha (Homo sapiens), P16234 [V561D]; assay: PDGFR-alpha V561D ProQinase selectivity panel; details: Compound concentration 1.0 uM
[32] = target: Protein kinase C iota type (Homo sapiens) (UniProt P41743); assay: PKC-iota ProQinase selectivity panel; details: Compound concentration 1.0 uM
[33] = target: Serine/threonine-protein kinase D2 (Homo sapiens) (UniProt Q9BZL6); assay: PRKD2 ProQinase selectivity panel; details: Compound concentration 1.0 uM
[34] = target: cAMP-dependent protein kinase catalytic subunit PRKX (Homo sapiens) (UniProt P51817); assay: PRKX ProQinase selectivity panel; details: Compound concentration 1.0 uM
[35] = target: Ribosomal protein S6 kinase beta-1 (Homo sapiens) (UniProt P23443); assay: S6K ProQinase selectivity panel; details: Compound concentration 1.0 uM
[36] = target: Ribosomal protein S6 kinase beta-2 (Homo sapiens) (UniProt Q9UBS0); assay: S6K-beta ProQinase selectivity panel; details: Compound concentration 1.0 uM
[37] = target: Serine/threonine-protein kinase PLK4 (Homo sapiens) (UniProt O00444); assay: SAK ProQinase selectivity panel; details: Compound concentration 1.0 uM
[38] = target: Proto-oncogene tyrosine-protein kinase Src (Homo sapiens) (UniProt P12931); assay: SRC ProQinase selectivity panel; details: Compound concentration 1.0 uM
[39] = target: TGF-beta receptor type-1 (Homo sapiens) (UniProt P36897); assay: TGFB-R1 ProQinase selectivity panel; details: Compound concentration 1.0 uM
[40] = target: 5-hydroxytryptamine receptor 1D (Homo sapiens) (UniProt P28221); details: Compound concentration 10.0 uM
[41] = target: 5-hydroxytryptamine receptor 2A (Homo sapiens, UniProt P28223); details: Compound concentration 10.0 uM
[42] = target: 5-hydroxytryptamine receptor 2C (Homo sapiens) (UniProt P28335); details: Compound concentration 10.0 uM
[43] = target: Histamine H1 receptor (Homo sapiens) (UniProt P35367); details: Compound concentration 10.0 uM
[44] = target: Alpha-2B adrenergic receptor (Homo sapiens) (UniProt P18089); details: Compound concentration 10.0 uM
[45] = target: Beta-2 adrenergic receptor (Homo sapiens) (UniProt P07550); details: Compound concentration 10.0 uM
[46] = target: GABA-A receptor; anion channel (Rattus norvegicus) (UniProt O09028+P15431+P18506+P18508+P19969+P20236+P23574+P23576+P28471+P28473+P30191+P62813+P63079+P63138+Q91ZM7+Q9ES14); details: Compound concentration 10.0 uM

Tyrosine-protein kinase JAK1 (Homo sapiens), sequence (P23458 whole entry): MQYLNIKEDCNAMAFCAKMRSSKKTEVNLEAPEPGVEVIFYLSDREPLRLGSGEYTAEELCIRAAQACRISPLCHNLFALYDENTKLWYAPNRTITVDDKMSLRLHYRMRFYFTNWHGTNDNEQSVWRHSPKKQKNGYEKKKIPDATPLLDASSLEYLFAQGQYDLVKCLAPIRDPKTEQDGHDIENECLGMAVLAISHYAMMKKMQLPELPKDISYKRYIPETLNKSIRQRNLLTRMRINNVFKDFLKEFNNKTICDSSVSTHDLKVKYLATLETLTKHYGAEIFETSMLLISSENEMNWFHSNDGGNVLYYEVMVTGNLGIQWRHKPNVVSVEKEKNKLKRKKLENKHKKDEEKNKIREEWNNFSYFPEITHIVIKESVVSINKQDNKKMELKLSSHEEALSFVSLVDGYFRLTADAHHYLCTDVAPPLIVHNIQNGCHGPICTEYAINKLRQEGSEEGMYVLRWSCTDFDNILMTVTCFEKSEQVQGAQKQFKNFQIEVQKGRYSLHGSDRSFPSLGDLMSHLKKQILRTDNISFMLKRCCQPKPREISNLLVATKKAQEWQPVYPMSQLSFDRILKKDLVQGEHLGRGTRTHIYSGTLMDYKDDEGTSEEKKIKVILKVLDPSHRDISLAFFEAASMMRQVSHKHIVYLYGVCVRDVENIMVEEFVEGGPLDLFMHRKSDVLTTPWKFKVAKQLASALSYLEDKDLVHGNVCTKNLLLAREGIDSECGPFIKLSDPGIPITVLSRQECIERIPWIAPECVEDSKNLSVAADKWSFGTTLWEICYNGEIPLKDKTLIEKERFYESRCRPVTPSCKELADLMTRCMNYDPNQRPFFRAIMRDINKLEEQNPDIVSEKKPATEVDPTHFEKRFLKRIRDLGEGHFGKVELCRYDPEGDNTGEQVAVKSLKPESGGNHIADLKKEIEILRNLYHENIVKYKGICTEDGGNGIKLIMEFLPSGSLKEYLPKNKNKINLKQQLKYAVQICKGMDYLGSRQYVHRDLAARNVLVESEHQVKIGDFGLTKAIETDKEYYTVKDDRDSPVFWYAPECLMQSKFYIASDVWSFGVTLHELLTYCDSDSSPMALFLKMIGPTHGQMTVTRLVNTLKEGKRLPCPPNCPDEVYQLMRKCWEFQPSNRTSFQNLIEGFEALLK
5-hydroxytryptamine receptor 2A, sequence (P28223 whole entry): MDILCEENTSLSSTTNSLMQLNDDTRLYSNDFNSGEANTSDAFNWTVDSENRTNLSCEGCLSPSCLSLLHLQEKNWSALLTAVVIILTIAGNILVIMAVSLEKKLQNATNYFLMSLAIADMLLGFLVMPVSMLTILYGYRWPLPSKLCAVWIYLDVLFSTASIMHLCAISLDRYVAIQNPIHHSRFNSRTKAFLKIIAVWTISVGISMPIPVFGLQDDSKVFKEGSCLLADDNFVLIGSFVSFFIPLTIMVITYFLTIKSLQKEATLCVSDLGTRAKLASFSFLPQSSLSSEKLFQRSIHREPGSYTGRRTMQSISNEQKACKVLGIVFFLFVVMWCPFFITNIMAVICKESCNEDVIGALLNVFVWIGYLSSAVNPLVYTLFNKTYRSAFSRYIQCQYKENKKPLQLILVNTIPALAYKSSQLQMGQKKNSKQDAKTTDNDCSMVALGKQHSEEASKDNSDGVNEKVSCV
Protein kinase C iota type (Homo sapiens), sequence (P41743 whole entry): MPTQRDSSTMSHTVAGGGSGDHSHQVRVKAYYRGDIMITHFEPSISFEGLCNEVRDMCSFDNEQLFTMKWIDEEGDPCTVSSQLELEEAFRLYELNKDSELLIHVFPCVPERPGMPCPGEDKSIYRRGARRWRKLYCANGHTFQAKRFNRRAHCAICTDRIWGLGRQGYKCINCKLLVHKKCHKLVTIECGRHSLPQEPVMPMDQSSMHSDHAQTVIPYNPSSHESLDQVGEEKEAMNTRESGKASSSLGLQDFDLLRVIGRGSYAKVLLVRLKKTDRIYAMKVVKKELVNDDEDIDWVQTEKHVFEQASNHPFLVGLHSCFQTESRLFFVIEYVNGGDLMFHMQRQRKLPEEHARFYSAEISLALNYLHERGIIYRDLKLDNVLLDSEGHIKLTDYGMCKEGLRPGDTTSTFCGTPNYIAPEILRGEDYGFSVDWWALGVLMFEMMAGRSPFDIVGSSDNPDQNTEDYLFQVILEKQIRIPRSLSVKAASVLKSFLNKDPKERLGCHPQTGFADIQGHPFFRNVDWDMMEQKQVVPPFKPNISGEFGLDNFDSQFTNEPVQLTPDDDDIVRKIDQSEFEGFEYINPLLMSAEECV
Megakaryocyte-associated tyrosine-protein kinase (Homo sapiens), sequence (P42679 whole entry): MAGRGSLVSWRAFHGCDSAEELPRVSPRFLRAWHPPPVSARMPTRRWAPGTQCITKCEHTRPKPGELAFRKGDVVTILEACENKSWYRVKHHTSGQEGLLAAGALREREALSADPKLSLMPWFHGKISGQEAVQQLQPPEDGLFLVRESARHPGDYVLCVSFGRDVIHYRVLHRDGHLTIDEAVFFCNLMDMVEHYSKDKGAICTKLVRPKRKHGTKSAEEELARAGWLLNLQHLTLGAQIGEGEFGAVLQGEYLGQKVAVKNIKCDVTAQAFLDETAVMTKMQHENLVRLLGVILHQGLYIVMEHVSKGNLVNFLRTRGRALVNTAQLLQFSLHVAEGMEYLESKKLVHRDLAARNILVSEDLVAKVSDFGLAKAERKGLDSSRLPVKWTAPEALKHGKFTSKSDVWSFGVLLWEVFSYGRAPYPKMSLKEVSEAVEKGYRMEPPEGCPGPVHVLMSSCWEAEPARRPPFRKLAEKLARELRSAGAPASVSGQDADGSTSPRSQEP
Mast/stem cell growth factor receptor Kit (Homo sapiens), P10721 [T670I], sequence (P10721 whole entry T670I): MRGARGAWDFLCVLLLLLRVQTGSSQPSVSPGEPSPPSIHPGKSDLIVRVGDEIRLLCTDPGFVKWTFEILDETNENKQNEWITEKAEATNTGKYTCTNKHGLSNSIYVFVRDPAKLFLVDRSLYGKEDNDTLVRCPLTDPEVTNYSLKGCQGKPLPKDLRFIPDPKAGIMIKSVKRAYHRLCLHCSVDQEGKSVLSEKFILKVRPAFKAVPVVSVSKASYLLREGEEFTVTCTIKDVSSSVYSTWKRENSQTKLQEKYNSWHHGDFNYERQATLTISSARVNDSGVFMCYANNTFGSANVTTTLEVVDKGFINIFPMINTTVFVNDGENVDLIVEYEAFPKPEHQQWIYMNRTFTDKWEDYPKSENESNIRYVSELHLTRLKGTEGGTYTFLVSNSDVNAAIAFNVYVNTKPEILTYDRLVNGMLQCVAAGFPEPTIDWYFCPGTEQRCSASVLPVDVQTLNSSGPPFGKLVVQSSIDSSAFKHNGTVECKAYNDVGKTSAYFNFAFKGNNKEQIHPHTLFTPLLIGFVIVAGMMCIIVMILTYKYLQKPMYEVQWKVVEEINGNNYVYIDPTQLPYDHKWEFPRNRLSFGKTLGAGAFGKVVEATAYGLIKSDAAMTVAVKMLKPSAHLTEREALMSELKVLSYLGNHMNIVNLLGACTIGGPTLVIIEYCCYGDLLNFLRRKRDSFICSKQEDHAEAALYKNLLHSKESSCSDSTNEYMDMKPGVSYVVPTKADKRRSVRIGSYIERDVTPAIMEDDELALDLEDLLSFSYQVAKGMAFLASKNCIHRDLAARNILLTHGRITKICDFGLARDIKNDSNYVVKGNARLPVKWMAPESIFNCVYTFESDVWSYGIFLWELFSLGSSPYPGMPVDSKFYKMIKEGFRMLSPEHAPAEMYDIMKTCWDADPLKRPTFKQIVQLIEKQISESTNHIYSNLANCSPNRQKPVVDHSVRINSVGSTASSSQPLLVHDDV
Inhibitor of nuclear factor kappa-B kinase subunit epsilon (Homo sapiens), sequence (Q14164 whole entry): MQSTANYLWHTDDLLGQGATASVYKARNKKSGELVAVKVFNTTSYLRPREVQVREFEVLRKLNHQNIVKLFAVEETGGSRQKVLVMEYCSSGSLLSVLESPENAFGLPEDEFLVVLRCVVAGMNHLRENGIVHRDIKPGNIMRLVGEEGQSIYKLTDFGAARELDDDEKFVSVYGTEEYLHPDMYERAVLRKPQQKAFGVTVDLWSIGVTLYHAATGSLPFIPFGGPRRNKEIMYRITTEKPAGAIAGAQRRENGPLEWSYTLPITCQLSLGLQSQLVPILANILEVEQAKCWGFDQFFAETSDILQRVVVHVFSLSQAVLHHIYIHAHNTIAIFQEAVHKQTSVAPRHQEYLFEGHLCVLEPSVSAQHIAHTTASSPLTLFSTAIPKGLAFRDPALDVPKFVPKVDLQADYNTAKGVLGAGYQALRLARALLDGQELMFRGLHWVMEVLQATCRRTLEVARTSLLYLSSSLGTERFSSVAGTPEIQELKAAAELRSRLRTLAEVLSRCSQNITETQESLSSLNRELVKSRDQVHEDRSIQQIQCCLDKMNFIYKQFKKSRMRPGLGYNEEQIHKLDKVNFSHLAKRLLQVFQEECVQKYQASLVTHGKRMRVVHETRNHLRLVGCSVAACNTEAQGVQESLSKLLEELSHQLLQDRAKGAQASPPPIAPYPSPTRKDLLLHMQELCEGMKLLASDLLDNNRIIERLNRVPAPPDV
MAP kinase-activated protein kinase 2 (Homo sapiens), sequence (P49137 whole entry, looked up): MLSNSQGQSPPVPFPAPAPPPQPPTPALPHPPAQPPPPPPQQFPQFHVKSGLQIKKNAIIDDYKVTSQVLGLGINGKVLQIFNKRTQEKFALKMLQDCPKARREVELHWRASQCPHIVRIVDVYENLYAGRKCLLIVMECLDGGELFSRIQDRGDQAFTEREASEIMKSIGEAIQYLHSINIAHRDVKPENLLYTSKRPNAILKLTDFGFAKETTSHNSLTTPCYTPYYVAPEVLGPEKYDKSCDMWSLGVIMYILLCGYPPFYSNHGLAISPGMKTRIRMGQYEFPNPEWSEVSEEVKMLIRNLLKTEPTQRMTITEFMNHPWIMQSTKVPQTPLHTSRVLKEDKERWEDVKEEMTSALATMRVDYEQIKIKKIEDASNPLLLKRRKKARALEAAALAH

Question: Which % Residual activity with Skepinone-L [1] does the source give for O=C1c2ccc(Nc3ccc(F)cc3F)cc2CCc2ccc(OC[C@H](O)CO)cc21 [Skepinone-L] here?
Answer: The % Residual activity with Skepinone-L was 97%.

Question: What about the % Residual activity with Skepinone-L [2] of the same compound?
Answer: The % Residual activity with Skepinone-L was 95%.

Question: And the % Residual activity with Skepinone-L [3]?
Answer: Its % Residual activity with Skepinone-L is 94%.

Question: What about the % Residual activity with Skepinone-L [4] of the same compound?
Answer: The % Residual activity with Skepinone-L was 43%.

Question: What about the % Residual activity with Skepinone-L [5] of the same compound?
Answer: Its % Residual activity with Skepinone-L is 83%.

Question: What about the % Residual activity with Skepinone-L [6] of the same compound?
Answer: The % Residual activity with Skepinone-L was 83%.

Question: And the % Residual activity with Skepinone-L [7]?
Answer: Its % Residual activity with Skepinone-L is 99%.

Question: And the % Residual activity with Skepinone-L [8]?
Answer: The % Residual activity with Skepinone-L was 105%.

Question: What about the % Residual activity with Skepinone-L [9] of the same compound?
Answer: The % Residual activity with Skepinone-L was 87%.

Question: What about the % Residual activity with Skepinone-L [10] of the same compound?
Answer: The % Residual activity with Skepinone-L was 100%.

Question: And the % Residual activity with Skepinone-L [11]?
Answer: Its % Residual activity with Skepinone-L is 93%.

Question: And the % Residual activity with Skepinone-L [12]?
Answer: The % Residual activity with Skepinone-L was 96%.

Question: And the % Residual activity with Skepinone-L [13]?
Answer: Its % Residual activity with Skepinone-L is 74%.

Question: What about the % Residual activity with Skepinone-L [14] of the same compound?
Answer: The % Residual activity with Skepinone-L was 106%.

Question: What about the % Residual activity with Skepinone-L [15] of the same compound?
Answer: The % Residual activity with Skepinone-L was 101%.

Question: What about the % Residual activity with Skepinone-L [16] of the same compound?
Answer: Its % Residual activity with Skepinone-L is 100%.

Question: What about the % Residual activity with Skepinone-L [17] of the same compound?
Answer: The % Residual activity with Skepinone-L was 82%.

Question: And the % Residual activity with Skepinone-L [18]?
Answer: The % Residual activity with Skepinone-L was 104%.

Question: And the % Residual activity with Skepinone-L [19]?
Answer: Its % Residual activity with Skepinone-L is 103%.

Question: And the % Residual activity with Skepinone-L [20]?
Answer: The % Residual activity with Skepinone-L was 101%.

Question: What about the % Residual activity with Skepinone-L [21] of the same compound?
Answer: The % Residual activity with Skepinone-L was 93%.

Question: What about the % Residual activity with Skepinone-L [22] of the same compound?
Answer: Its % Residual activity with Skepinone-L is 145%.

Question: And the % Residual activity with Skepinone-L [23]?
Answer: The % Residual activity with Skepinone-L was 101%.

Question: What about the % Residual activity with Skepinone-L [24] of the same compound?
Answer: Its % Residual activity with Skepinone-L is 80%.

Question: What about the % Residual activity with Skepinone-L [25] of the same compound?
Answer: Its % Residual activity with Skepinone-L is 80%.

Question: What about the % Residual activity with Skepinone-L [26] of the same compound?
Answer: The % Residual activity with Skepinone-L was 111%.

Question: What about the % Residual activity with Skepinone-L [27] of the same compound?
Answer: The % Residual activity with Skepinone-L was 94%.

Question: What about the % Residual activity with Skepinone-L [28] of the same compound?
Answer: The % Residual activity with Skepinone-L was 96%.

Question: What about the % Residual activity with Skepinone-L [29] of the same compound?
Answer: The % Residual activity with Skepinone-L was 104%.

Question: And the % Residual activity with Skepinone-L [30]?
Answer: Its % Residual activity with Skepinone-L is 113%.

Question: What about the % Residual activity with Skepinone-L [31] of the same compound?
Answer: The % Residual activity with Skepinone-L was 91%.

Question: And the % Residual activity with Skepinone-L [32]?
Answer: The % Residual activity with Skepinone-L was 91%.

Question: What about the % Residual activity with Skepinone-L [33] of the same compound?
Answer: Its % Residual activity with Skepinone-L is 85%.

Question: And the % Residual activity with Skepinone-L [34]?
Answer: Its % Residual activity with Skepinone-L is 79%.

Question: What about the % Residual activity with Skepinone-L [35] of the same compound?
Answer: The % Residual activity with Skepinone-L was 85%.

Question: What about the % Residual activity with Skepinone-L [36] of the same compound?
Answer: Its % Residual activity with Skepinone-L is 89%.

Question: What about the % Residual activity with Skepinone-L [37] of the same compound?
Answer: The % Residual activity with Skepinone-L was 62%.

Question: What about the % Residual activity with Skepinone-L [38] of the same compound?
Answer: Its % Residual activity with Skepinone-L is 119%.

Question: And the % Residual activity with Skepinone-L [39]?
Answer: The % Residual activity with Skepinone-L was 93%.

Question: And the inhibition [40]?
Answer: The inhibition was 23.8%.

Question: And the inhibition [41]?
Answer: Its inhibition is 73.1%.

Question: And the inhibition [42]?
Answer: Its inhibition is 24%.

Question: And the inhibition [43]?
Answer: Its inhibition is 12.7%.

Question: And the inhibition [44]?
Answer: Its inhibition is 4.37%.

Question: And the inhibition [45]?
Answer: Its inhibition is 2.93%.

Question: What about the inhibition [46] of the same compound?
Answer: Its inhibition is 8.2%.
